# Results published in article PMC3961306, “Comparison of the Cancer Gene Targeting and Biochemical Selectivities of All Targeted Kinase Inhibitors Approved for Clinical Use” (PLoS ONE, 2014).
# How the values were obtained:
# Assay in all cases: Kinase profiling in a biochemical assay panel (mobility shift assays and ELISA), %-inhibition at 1 μM; selectivity entropy
# [1] = target: panel of more than 300 wild-type and mutant kinases (313 kinase panel) (Homo sapiens, UniProt P22607, K650E)
# [2] = target: panel of more than 300 wild-type and mutant kinases (313 kinase panel) (Homo sapiens, UniProt P53350)
# [3] = target: T1, panel of more than 300 wild-type and mutant kinases (313 kinase panel) (Homo sapiens, UniProt Q8TD19)
# T1 sequence (Q8TD19 1-979): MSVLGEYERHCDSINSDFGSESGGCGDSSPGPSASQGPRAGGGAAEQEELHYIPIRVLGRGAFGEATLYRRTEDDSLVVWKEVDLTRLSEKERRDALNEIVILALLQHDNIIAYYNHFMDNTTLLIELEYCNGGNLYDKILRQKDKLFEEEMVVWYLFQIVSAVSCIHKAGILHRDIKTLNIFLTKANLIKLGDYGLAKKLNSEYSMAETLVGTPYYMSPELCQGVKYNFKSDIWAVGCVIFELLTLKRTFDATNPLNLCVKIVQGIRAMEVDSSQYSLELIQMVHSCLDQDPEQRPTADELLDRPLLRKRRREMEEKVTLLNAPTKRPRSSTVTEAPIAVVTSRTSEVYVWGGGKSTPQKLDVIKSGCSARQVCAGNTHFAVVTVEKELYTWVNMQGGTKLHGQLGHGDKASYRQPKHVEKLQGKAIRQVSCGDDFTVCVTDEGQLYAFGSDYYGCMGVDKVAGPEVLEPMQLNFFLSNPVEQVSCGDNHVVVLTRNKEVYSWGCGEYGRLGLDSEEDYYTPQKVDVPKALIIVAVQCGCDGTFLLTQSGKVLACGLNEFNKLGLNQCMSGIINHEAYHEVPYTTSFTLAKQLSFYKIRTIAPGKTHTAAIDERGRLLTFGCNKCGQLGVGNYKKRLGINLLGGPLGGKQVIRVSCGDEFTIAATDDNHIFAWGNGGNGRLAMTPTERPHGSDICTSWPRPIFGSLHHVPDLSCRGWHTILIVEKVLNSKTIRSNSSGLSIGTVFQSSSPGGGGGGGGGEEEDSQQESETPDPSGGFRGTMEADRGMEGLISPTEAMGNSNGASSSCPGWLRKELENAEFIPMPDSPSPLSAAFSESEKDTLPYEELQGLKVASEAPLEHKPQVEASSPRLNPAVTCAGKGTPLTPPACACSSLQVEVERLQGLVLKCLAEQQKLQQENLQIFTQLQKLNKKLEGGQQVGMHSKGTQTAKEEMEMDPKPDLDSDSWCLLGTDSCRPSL
# [4] = target: panel of more than 300 wild-type and mutant kinases (313 kinase panel) (Homo sapiens, UniProt P48730)
# [5] = target: panel of more than 300 wild-type and mutant kinases (313 kinase panel) (Homo sapiens, UniProt P08631)
# [6] = target: panel of more than 300 wild-type and mutant kinases (313 kinase panel) (Homo sapiens, UniProt Q9Y6R4)
# [7] = target: panel of more than 300 wild-type and mutant kinases (313 kinase panel) (Homo sapiens, UniProt Q13131)
# [8] = target: T2, panel of more than 300 wild-type and mutant kinases (313 kinase panel) (Homo sapiens, UniProt O15111)
# T2 sequence (O15111 1-745): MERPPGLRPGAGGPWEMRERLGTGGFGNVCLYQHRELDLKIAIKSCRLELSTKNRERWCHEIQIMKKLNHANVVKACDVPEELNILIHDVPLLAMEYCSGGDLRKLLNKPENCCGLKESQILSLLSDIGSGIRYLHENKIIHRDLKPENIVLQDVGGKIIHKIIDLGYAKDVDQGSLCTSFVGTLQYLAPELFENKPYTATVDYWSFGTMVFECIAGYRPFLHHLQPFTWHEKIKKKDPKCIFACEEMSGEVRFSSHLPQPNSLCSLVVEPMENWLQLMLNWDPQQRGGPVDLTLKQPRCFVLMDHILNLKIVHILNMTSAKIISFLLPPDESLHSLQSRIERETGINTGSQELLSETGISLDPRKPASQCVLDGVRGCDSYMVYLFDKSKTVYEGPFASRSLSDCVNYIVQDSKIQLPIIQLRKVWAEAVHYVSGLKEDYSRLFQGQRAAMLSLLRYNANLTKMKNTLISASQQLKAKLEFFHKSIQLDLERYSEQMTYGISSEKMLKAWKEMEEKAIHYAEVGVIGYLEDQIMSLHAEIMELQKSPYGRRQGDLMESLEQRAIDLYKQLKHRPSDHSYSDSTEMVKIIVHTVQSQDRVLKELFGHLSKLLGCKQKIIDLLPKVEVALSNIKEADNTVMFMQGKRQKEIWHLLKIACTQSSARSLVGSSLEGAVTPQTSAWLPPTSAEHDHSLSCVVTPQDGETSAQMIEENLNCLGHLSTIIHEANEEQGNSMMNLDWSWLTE
# [9] = target: panel of more than 300 wild-type and mutant kinases (313 kinase panel) (Homo sapiens, UniProt Q9UM73)
# [10] = kinase FGFR3(K650E), compound at 1 μM
# [11] = kinase MAP3K4, compound at 1 μM
# [12] = kinase AMPKα1/β1/γ1, 1 μM compound
# Sequence of panel of more than 300 wild-type and mutant kinases (313 kinase panel) (Homo sapiens, UniProt P22607, K650E) (P22607 23-806 K650E): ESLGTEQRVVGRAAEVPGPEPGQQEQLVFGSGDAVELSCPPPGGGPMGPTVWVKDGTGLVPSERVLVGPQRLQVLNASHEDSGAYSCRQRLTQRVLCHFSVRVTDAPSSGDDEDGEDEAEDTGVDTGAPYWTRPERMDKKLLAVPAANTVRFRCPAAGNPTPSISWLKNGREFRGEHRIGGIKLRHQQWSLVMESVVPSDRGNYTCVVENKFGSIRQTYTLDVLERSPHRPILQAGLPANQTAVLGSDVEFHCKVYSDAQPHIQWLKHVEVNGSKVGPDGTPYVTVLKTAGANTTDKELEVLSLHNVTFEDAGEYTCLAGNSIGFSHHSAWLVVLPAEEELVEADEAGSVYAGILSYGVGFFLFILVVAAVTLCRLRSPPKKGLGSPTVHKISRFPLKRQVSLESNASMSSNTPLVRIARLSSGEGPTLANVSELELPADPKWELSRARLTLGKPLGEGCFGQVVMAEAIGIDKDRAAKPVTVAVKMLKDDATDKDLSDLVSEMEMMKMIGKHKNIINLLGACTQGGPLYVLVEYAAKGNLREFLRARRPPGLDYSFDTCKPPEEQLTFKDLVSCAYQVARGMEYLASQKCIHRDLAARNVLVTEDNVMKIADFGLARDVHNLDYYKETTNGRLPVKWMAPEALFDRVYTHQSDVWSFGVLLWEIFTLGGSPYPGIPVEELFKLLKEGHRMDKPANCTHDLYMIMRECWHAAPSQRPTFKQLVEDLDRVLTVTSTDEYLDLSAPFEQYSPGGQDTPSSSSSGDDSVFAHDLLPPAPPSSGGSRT
# Sequence of panel of more than 300 wild-type and mutant kinases (313 kinase panel) (Homo sapiens, UniProt P08631) (P08631 whole entry, change not shown): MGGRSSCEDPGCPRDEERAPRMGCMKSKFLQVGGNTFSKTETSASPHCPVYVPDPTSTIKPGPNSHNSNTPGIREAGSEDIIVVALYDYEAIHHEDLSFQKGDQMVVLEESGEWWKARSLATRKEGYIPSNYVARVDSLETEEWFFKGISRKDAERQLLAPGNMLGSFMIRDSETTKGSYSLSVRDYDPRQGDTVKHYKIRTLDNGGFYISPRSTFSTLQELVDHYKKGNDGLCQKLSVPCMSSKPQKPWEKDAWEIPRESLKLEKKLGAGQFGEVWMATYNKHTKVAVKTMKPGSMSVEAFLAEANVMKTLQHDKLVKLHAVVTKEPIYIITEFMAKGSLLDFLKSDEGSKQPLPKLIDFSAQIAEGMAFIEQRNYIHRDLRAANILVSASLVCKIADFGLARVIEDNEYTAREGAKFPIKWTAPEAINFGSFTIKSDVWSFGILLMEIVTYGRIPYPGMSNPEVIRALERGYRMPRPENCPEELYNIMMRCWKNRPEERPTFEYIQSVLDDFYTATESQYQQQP
# Sequence of panel of more than 300 wild-type and mutant kinases (313 kinase panel) (Homo sapiens, UniProt Q9Y6R4) (Q9Y6R4 whole entry, change not shown): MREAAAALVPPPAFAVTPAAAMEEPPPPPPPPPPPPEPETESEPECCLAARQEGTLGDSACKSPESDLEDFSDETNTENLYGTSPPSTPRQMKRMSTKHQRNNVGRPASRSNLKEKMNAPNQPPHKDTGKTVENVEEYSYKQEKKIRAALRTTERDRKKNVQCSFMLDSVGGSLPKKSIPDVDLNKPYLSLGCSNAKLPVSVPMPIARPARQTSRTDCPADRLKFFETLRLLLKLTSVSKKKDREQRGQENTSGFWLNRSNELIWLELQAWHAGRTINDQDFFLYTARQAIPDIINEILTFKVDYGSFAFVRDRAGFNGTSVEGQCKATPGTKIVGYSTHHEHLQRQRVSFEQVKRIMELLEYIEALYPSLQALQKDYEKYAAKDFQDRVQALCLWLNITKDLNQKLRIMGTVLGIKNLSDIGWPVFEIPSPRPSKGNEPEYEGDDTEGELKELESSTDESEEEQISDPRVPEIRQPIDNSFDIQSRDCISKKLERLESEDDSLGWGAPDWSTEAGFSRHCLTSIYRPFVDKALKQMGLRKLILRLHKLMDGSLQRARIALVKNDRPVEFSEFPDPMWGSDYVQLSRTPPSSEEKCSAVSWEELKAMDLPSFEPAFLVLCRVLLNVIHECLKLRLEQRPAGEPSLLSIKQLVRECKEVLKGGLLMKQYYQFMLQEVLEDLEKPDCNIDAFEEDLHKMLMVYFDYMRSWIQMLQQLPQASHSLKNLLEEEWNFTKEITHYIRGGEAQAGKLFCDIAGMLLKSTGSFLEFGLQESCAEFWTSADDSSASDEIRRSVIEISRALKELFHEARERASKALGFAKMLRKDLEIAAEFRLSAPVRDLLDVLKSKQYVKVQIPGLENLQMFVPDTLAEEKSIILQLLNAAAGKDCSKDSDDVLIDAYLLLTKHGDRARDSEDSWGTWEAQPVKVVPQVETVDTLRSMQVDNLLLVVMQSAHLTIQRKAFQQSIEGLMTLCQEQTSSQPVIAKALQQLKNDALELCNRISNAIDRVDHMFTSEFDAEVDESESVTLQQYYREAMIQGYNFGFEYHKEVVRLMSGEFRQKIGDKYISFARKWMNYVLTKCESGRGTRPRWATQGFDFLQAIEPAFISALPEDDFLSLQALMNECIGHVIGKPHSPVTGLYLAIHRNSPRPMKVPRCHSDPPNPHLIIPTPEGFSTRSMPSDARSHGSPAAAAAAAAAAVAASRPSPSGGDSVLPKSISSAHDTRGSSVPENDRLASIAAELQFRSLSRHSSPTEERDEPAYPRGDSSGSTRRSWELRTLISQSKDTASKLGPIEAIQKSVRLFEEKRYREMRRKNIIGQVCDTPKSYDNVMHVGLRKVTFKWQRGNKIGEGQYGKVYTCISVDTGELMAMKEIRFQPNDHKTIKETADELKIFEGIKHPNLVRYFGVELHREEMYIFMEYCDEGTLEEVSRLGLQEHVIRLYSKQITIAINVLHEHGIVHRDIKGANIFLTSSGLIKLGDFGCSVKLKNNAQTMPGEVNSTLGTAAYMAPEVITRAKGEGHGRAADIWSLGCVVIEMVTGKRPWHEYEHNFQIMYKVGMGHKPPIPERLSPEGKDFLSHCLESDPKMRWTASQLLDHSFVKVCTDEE
# Sequence of panel of more than 300 wild-type and mutant kinases (313 kinase panel) (Homo sapiens, UniProt Q13131) (Q13131 whole entry, change not shown): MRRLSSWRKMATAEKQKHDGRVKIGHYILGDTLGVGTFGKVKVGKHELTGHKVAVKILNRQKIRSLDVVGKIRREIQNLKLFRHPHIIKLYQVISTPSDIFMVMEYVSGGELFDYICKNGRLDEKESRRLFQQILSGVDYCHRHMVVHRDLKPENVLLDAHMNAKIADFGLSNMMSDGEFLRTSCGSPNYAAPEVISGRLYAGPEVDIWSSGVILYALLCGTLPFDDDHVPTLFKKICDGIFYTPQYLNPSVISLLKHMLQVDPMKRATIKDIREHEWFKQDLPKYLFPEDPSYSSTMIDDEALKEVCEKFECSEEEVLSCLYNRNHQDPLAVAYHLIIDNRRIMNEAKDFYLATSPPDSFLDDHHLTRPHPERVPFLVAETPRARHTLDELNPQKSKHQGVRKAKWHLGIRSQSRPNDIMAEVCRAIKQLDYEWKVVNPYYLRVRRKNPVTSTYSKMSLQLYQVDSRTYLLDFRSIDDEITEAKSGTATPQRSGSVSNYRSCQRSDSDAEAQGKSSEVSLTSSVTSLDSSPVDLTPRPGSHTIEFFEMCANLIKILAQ
Compound,"%-inhibition of FGFR3(K650E) [1, 10]","%-inhibition of PLK1 ([2]; kinase PLK1, 1 μM)","%-inhibition of NEK9 ([3]; kinase NEK9, 1 μM)","%-inhibition, CK1δ ([4]; kinase CK1δ, 1 μM compound)","%-inhibition of HCK ([5]; kinase HCK, compound at 1 μM)","%-inhibition of MAP3K4 [6, 11]","%-inhibition, AMPKα1/β1/γ1 [7, 12]","%-inhibition of IKKα ([8]; kinase IKKα, compound at 1 μM)","%-inhibition, ALK ([9]; kinase ALK, 1 μM compound)",%-inhibition of FGFR3(K650E) ([1]; 1 µM),%-inhibition of PLK1 ([2]; 1 µM),%-inhibition of NEK9 ([3]; 1 µM),"%-inhibition, CK1δ ([4]; 1 µM)",%-inhibition of HCK ([5]; 1 µM),"%-inhibition, ALK ([9]; 1 µM)",%-inhibition of MAP3K4 ([6]; 1 µM),"%-inhibition, AMPKα1/β1/γ1 ([7]; 1 µM)",%-inhibition of IKKα ([8]; 1 µM)
C[C@@H](Oc1cc(-c2cnn(C3CCNCC3)c2)cnc1N)c1c(Cl)ccc(F)c1Cl [crizotinib],52%,-3%,57%,9%,26%,5%,16%,-1.78%,,,,,,,,,,
CC(C)(C)c1nc(-c2cccc(NS(=O)(=O)c3c(F)cccc3F)c2F)c(-c2ccnc(N)n2)s1 [dabrafenib],5%,-9%,101%,8.51%,57%,19%,,,,,,,,,,,,
COc1cc2c(Nc3ccc(Br)cc3F)ncnc2cc1OCC1CCN(C)CC1 [vandetanib],,-3.6%,-7%,6%,,-10%,9%,-4.38%,,,,,,,,,,
O=S(=O)(c1cccc2cnccc12)N1CCCNCC1 [fasudil],-0.641%,-8.49%,-3%,-3.4%,-2.15%,-18%,-14%,8%,-4.38%,,,,,,,,,
C#Cc1cccc(Nc2ncnc3cc(OCCOC)c(OCCOC)cc23)c1 [erlotinib],,,,,,,,,,80%,-10%,7%,-4%,26%,35%,-1.55%,2%,-5%
COc1cc2nccc(Oc3ccc(NC(=O)C4(C(=O)Nc5ccc(F)cc5)CC4)cc3)c2cc1OC [cabozantinib],26%,-2%,1.26%,0.0601%,95%,-0.178%,-1%,-1.89%,49%,,,,,,,,,
Cc1ccc(C(=O)Nc2ccc(CN3CCN(C)CC3)c(C(F)(F)F)c2)cc1C#Cc1cnc2cccnn12 [ponatinib],101%,-6%,17%,,98%,60%,46%,27%,9%,,,,,,,,,
CCCS(=O)(=O)Nc1ccc(F)c(C(=O)c2c[nH]c3ncc(-c4ccc(Cl)cc4)cc23)c1F [vemurafenib],6.55%,-4%,-2.2%,-3%,30%,14%,-1.59%,-1.89%,1.14%,,,,,,,,,
CCN(CC)CCNC(=O)c1c(C)[nH]c(/C=C2\C(=O)Nc3ccc(F)cc32)c1C [sunitinib],96%,,,32%,,,,0.813%,,,,,,,,,,
Cc1cn(-c2cc(NC(=O)c3ccc(C)c(Nc4nccc(-c5cccnc5)n4)c3)cc(C(F)(F)F)c2)cn1 [nilotinib],-37%,-2.41%,-21%,-17%,,-18%,,1.27%,-8%,,,,,73%,,,-12%,
CS(=O)(=O)CCNCc1ccc(-c2ccc3ncnc(Nc4ccc(OCc5cccc(F)c5)c(Cl)c4)c3c2)o1 [lapatinib],0.415%,,,,,,-5%,-9%,1.72%,,-2.71%,,-3.34%,-0.366%,,2%,,
CNC(=O)c1cc(Oc2ccc(NC(=O)Nc3ccc(Cl)c(C(F)(F)F)c3)c(F)c2)ccn1 [regorafenib],99%,-0.767%,2.52%,-6%,59%,-9%,-0.723%,-0.333%,-3.43%,,,,,,,,,
Cc1ccc(Nc2nccc(N(C)c3ccc4c(C)n(C)nc4c3)n2)cc1S(N)(=O)=O [pazopanib],,1.15%,3.59%,1.13%,67%,2.47%,-0.748%,-1.68%,48%,,,,,,,,,
N#CC[C@H](C1CCCC1)n1cc(-c2ncnc3[nH]ccc23)cn1 [ruxolitinib],16%,25%,8%,12%,9%,-4%,2.17%,-2.5%,,,,,,,69%,,,
COc1cc(Nc2c(C#N)cnc3cc(OCCCN4CCN(C)CC4)c(OC)cc23)c(Cl)cc1Cl [bosutinib],,5%,,,89%,96%,9%,1.66%,71%,,,-4.25%,,,,,,
